Source: patent publication US20250257060A1, “OXADIAZOLE COMPOUND, PHARMACEUTICAL COMPOSITION COMPRISING SAME, AND USE THEREOF” (SUZHOU GENHOUSE BIO CO., LTD., priority 2022, published 2025)

How the values were obtained:
[1] = tested on: acetylation level of α-tubulin in HCT116 cells; experiment: Assay on acetylation level of α-tubulin, HCT116 cells; format: cell-based; conditions: Homo sapiens, HCT-116, 6 h
Method: (§1) A375/HCT116/HCC827 cells at a logarithmic growth phase were taken, digested with a […] (trypsin), centrifuged, counted, and plated in a 96-well plate at an appropriate cell density (30,000 cells/well) at 100 µL/well, and an appropriate amount of PBS was added around the plate for water sealing. The next day, the cells were treated with the compounds at different concentrations (starting at 100 μM, 5-fold dilution, 9 concentration gradients). After 6 h, the medium was pipetted out and the cells were washed twice with 100 μL of PBST. The cells were then immobilized in 4% paraformaldehyde, and the plate was incubated at room temperature for 20 min. The stationary liquid was discarded and the cells were washed with PBST. 150 μL of special blocking buffer (containing 1% Triton-100) was added to each well for blocking at room temperature for 2 h, and the plate was washed with PBS to remove excess blocking buffer. α-tubulin (DM1A) mouse mAb and acetyl-α-tubulin (Lys40) (D20G3) XP rabbit mAb were diluted at a 1:2000 ratio with a blocking buffer containing 0.033% Triton-100. The dilutions were added to the 96-well plate and the plate was incubated overnight at 4° C. Meanwhile, a blank control group was set. The next day, the plate was washed twice with PBST. Secondary anti-mouse IgG (H+L) (DyLight™ 680 conjugate) and anti-rabbit IgG (H+L) (DyLight™ 800 conjugate) were diluted at a 1:2000 ratio with a blocking buffer containing 0.033% Triton-100. The dilutions were added to a 96-well plate and the plate was incubated at room temperature for 2 h. The plate was washed twice with PBST and once with PBS. Fluorescence signals at 700 nm and 800 nm were detected with a Li-COR Odyssey two-color near-infrared laser imager.

[2] = tested on: acetylation level of α-tubulin in HCC827 cells; experiment: Assay on acetylation level of α-tubulin, HCC827 cells; format: cell-based; conditions: Homo sapiens, 6 h
Method: as §1, with “Secondary anti-mouse IgG (H+L) (DyLight™ 680 conjugate) and anti-rabbit IgG (H+L) (DyLight™ 800 conjugate) were diluted at a 1:2000 ratio with a blocking buffer containing 0.033% Triton-100. The dilutions were added to a 96-well plate and the plate was incubated at room temperature for 2 h. The plate was washed twice with PBST and once with PBS.” left out

[3] = Phase I metabolic stability in dog liver microsomes (DLMs); format: in vitro ADME, beagle dogs; set-up: half-life: dose or concentration left out as unconfirmed; conditions: DLM; for Remaining rate (NCF = 60 min): buffer instead of NADPH regeneration system; for Remaining rate (T = 60 min): with NADPH; for CLint scaled at 1 µM / half-life / microsomal CLint at 1 M: beagle, dog, liver microsomes, pH 7.4; for microsomal CLint at 1 M: read-out: CLint (mic)
Method: Phase I metabolic stability of the test compounds in liver microsomes of CD-1 mice (MLMs), Sprague-Dawley rats (RLMs), beagle dogs (DLMs), cynomolgus monkeys (CLMs), and humans (HLMs) was evaluated.
The animal and human liver microsomes used in the test system were purchased from Xenotech, Corning, or other qualified suppliers and stored in a freezer at a temperature below −60° C. prior to use.
The test samples and control compounds were separately incubated with animal and human liver microsomes at 37±1° C. for a period of incubation time up to 60 min. The samples were removed at the indicated time points, and the reaction was stopped with acetonitrile or other organic solvents containing an internal standard. After centrifugation, the resulting supernatants were assayed by liquid chromatography-tandem mass spectrometry (LC-MS/MS).
73.21 g of dipotassium hydrogenphosphate trihydrate and 10.78 g of potassium dihydrogenphosphate were dissolved in 4000 mL of ultrapure water. The solution was adjusted to pH 7.40±0.10 with 10% phosphoric acid or 1 M potassium hydroxide to make a final concentration of 100 mM.
The test sample powder was prepared into a stock solution at a certain concentration with DMSO or other organic solvents, which was then further diluted with a proper organic solvent.
Microsomes of each species were diluted into a 2× working solution with a 100 mM potassium phosphate buffer. The final concentration of the microsomes in the reaction system was 0.5 mg/mL.
An appropriate amount of nicotinamide adenine dinucleotide phosphate (NADP) and isocitric acid (ISO) powder was weighed out, dissolved in a magnesium chloride solution, and shaken and mixed well. An appropriate amount of isocitrate dehydrogenase (IDH) was added, and the mixture was mixed well by gently turning upside down. The final concentrations in the reaction system were: 1 mM NADP, 1 mM magnesium chloride, 6 mM ISO, and 1 unit/mL IDH.
Incubation was performed in a 96-well plate. Eight incubation plates were prepared and designated T0, T5, T15, T30, T45, T60, Blank60, and NCF60, respectively. The first 6 plates corresponded to reaction time points of 0, 5, 15, 30, 45, and 60 min, respectively. No test sample or control compound was added to the Blank60 plate, and samples were taken after 60 min of incubation. In the NCF60 plate, incubation was performed for 60 min using the potassium phosphate buffer instead of the NADPH regeneration system solution. Three replicates were made for samples in all conditions.
The microsomes and the test sample or control compound were mixed, and then the incubation plates Blank60, T5, T15, T30, T45, and T60 except for TO and NCF60 were placed in a 37° C. water bath for pre-incubation for about 10 min. In the incubation plate TO, a stop solution was first added, followed by addition of the NADPH regeneration system working solution, and 98 μL of the potassium phosphate buffer was added to each sample well of the incubation plate NCF60 to initiate the reaction. After the pre-incubations of the incubation plates Blank60, T5, T15, T30, T45, and T60 were completed, 98 μL of the NADPH regeneration system working solution was added to each sample well to initiate the reaction. The reaction temperature was 37±1° C., the final volume of the reaction was 200 μL, and the reaction system included 0.5 mg/mL microsomes, […], 1 mM NADP, 6 mM ISO, and 1 unit/mL IDH.
At 5 min, 15 min, 30 min, 45 min, and 60 min, a cold stop solution containing an internal standard was added to the reaction plate to stop the reaction.
All the reaction plates after the reaction was stopped were shaken well and centrifuged at 3220×g at 4° C. for 20 min. After the supernatant was diluted according to a certain proportion, LC-MS/MS analysis was performed.
Sample analysis was performed by the liquid chromatography-tandem mass spectrometry (LC-MS/MS) method without standard curves and quality control samples. […]

## O=C(N[C@@H]1CCCC[C@H]1N1Cc2ccc(-c3nnc(C(F)F)o3)cc2S1(=O)=O)C(F)F [Compound 2]
[1]
  EC50: 140 ± 39.1 nM
[2]
  EC50: 288 ± 49.3 nM
[3]
  Remaining rate (NCF = 60 min): 90.9%
  Remaining rate (T = 60 min): 85.8%
  CLint scaled at 1 µM: < 13.8 mL/min/kg
  half-life: > 145 min
  microsomal CLint at 1 M: < 9.6 µL/min/mg

## O=C(N[C@H]1[C@H](N2Cc3ccc(-c4nnc(C(F)F)o4)cc3S2(=O)=O)CCCC1(F)F)C(F)F [Compound 61]
[1]
  EC50: 195 nM

## CC(F)(F)C(=O)N[C@@H]1CCCC[C@H]1N1Cc2ccc(-c3nnc(C(F)F)o3)cc2S1(=O)=O [Compound 1]
[1]
  EC50: 262 nM
[2]
  EC50: 338 nM
[3]
  Remaining rate (NCF = 60 min): 98.9%
  Remaining rate (T = 60 min): 86.6%
  CLint scaled at 1 µM: < 13.8 mL/min/kg
  half-life: > 145 min
  microsomal CLint at 1 M: < 9.6 µL/min/mg
